Results: patent US10906915B2, “Substituted pyrazoloazepin-4-ones and their use as phosphodiesterase inhibitors” (LEO Pharma A/S, priority 2016, dated 2021)

The compounds below were run against human PDE4D catalytic domain (UniProt no. Q08499) (Homo sapiens (Human), UniProt Q08499) (assay: PDE4 assay (TR-FRET, FAM-cAMP cleavage)). Conditions: human PDE4D catalytic domain; molar concentration giving 50% inhibition of substrate cleavage; read-out: PDE4 IC50 range.
Format: biochemical
How it was run: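 PDE4D catalytic domain ([…]) was incubated with unlabelled cAMP plus FAM-cAMP and titrated compound, stopped with binding buffer of metal-ion nanoparticles and Tb donor. AMP generation read by TR-FRET; IC50 as 50% inhibition of cleavage versus controls, reported as nM ranges.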

Sequence of human PDE4D catalytic domain (Q08499 380-740 limits assumed): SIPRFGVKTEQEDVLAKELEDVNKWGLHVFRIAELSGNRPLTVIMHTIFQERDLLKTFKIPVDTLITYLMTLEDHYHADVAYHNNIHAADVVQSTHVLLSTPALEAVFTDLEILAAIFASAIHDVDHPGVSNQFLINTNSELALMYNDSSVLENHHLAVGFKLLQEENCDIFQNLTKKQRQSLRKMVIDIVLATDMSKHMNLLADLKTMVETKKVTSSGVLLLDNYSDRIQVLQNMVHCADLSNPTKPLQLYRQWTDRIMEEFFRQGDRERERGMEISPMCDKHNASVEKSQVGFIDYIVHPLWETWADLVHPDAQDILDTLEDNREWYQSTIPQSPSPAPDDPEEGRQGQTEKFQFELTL

| SMILES | IC50 [nM] |
| --- | --- |
| CCc1nn(CCCOC(=O)c2ccc(C#N)cc2F)c2c1C(=O)NCC1(CCOCC1)C2 [Example 54, 3-(3-ethyl-4-oxo-spiro[6,8-dihydro-5H-pyrazolo[4,3-c]azepine-7,4′-tetrahydropyran]-1-yl)propyl 4-cyano-2-fluoro-benzoate] | < 100 |
| CCc1nn(CCCOC(=O)c2ccc(C(F)(F)F)cc2Cl)c2c1C(=O)NCC1(CCOCC1)C2 [Example 126, 3-(3-ethyl-4-oxo-spiro[6,8-dihydro-5H-pyrazolo[4,3-c]azepine-7,4′-tetrahydropyran]-1-yl)propyl 2-chloro-4-(trifluoromethyl)benzoate] | < 100 |
| CCc1nn(CCCOC(=O)COC(C)C)c2c1C(=O)NCC1(CCOCC1)C2 [Example 12, 3-(3-ethyl-4-oxo-spiro[6,8-dihydro-5H-pyrazolo[4,3-c]azepine-7,4′-tetrahydropyran]-1-yl)propyl 2-isopropoxyacetate] | > 500 |
| CCc1nn(CCCOC(=O)c2ccc(F)c(C)c2)c2c1C(=O)NCC1(CCOCC1)C2 [Example 35, 3-(3-ethyl-4-oxo-spiro[6,8-dihydro-5H-pyrazolo[4,3-c]azepine-7,4′-tetrahydropyran]-1-yl)propyl 4-fluoro-3-methyl-benzoate] | < 100 |
| CCc1nn(C[C@@H](C)COC(=O)c2ccc(C(=O)N3CCN(C(C)=O)CC3)cc2)c2c1C(=O)NCC1(CCOCC1)C2 [Example 262, [(2R)-3-(3-ethyl-4-oxo-spiro[6,8-dihydro-5H-pyrazolo[4,3-c]azepine-7,4′-tetrahydropyran]-1-yl)-2-methyl-propyl] 4-(4-acetylpiperazine-1-carbonyl)benzoate] | < 100 |
| CCc1nn(CCCOC(=O)c2ccc(F)c(Cl)c2)c2c1C(=O)NCC1(CCOCC1)C2 [Example 84, 3-(3-ethyl-4-oxo-spiro[6,8-dihydro-5H-pyrazolo[4,3-c]azepine-7,4′-tetrahydropyran]-1-yl)propyl 3-chloro-4-fluoro-benzoate] | < 100 |
| CCc1nn(CCCOC(=O)c2cccc(C(=O)N3CCN(C(C)=O)CC3)c2)c2c1C(=O)NCC1(CCOCC1)C2 [Example 159, 3-(3-ethyl-4-oxo-spiro[6,8-dihydro-5H-pyrazolo[4,3-c]azepine-7,4′-tetrahydropyran]-1-yl)propyl 3-(4-acetylpiperazine-1-carbonyl)benzoate] | < 100 |
| CCc1nn(CCCOC(=O)c2cccc(C(F)(F)F)c2Cl)c2c1C(=O)NCC1(CCOCC1)C2 [Example 123, 3-(3-ethyl-4-oxo-spiro[6,8-dihydro-5H-pyrazolo[4,3-c]azepine-7,4′-tetrahydropyran]-1-yl)propyl 2-chloro-3-(trifluoromethyl)benzoate] | < 100 |
| CCc1nn(C[C@@H](C)COC(=O)c2ccc(C(=O)N3CCNCC3)cc2)c2c1C(=O)NCC1(CCOCC1)C2 [Example 259, [(2R)-3-(3-ethyl-4-oxo-spiro[6,8-dihydro-5H-pyrazolo[4,3-c]azepine-7,4′-tetrahydropyran]-1-yl)-2-methyl-propyl] 4-(piperazine-1-carbonyl)benzoate] | < 100 |
| CCc1nn(CCCOC(=O)c2ccc(S(=O)(=O)C3CCCC3)cc2)c2c1C(=O)NCC1(CCOCC1)C2 [Example 132, 3-(3-ethyl-4-oxo-spiro[6,8-dihydro-5H-pyrazolo[4,3-c]azepine-7,4′-tetrahydropyran]-1-yl)propyl 4-cyclopentylsulfonyl-benzoate] | 100 to 500 |
| CCc1nn(CCCOC(=O)c2ccc(C(=O)N3CCOCC3)cc2)c2c1C(=O)NCC1(CCOCC1)C2 [Example 147, 3-(3-ethyl-4-oxo-spiro[6,8-dihydro-5H-pyrazolo[4,3-c]azepine-7,4′-tetrahydropyran]-1-yl)propyl 4-(morpholine-4-carbonyl)benzoate] | 100 to 500 |
| CCc1nn(CCCOC(=O)[C@H]2CC[C@H](O)CC2)c2c1C(=O)NCC1(CCOCC1)C2 [Example 22, 3-(3-ethyl-4-oxo-spiro[6,8-dihydro-5H-pyrazolo[4,3-c]azepine-7,4′-tetrahydropyran]-1-yl)propyl trans-4-hydroxycyclohexane-carboxylate] | 100 to 500 |
| CCc1nn(CCCOC(=O)c2cccc(C(C)=O)c2)c2c1C(=O)NCC1(CCOCC1)C2 [Example 51, 3-(3-ethyl-4-oxo-spiro[6,8-dihydro-5H-pyrazolo[4,3-c]azepine-7,4′-tetrahydropyran]-1-yl)propyl 3-acetylbenzoate] | < 100 |
| CCc1nn(CCCOC(=O)c2ccccc2O)c2c1C(=O)NCC1(CCOCC1)C2 [Example 17, 3-(3-ethyl-4-oxo-spiro[6,8-dihydro-5H-pyrazolo[4,3-c]azepine-7,4′-tetrahydropyran]-1-yl)propyl 2-hydroxybenzoate] | < 100 |
| CCc1nn(CCCOC(=O)C(C)C)c2c1C(=O)NCC1(CCOCC1)C2 [Example 7, 3-(3-ethyl-4-oxo-spiro[6,8-dihydro-5H-pyrazolo[4,3-c]azepine-7,4′-tetrahydropyran]-1-yl)propyl 2-methylpropanoate] | 100 to 500 |
| CCc1nn(CCCOC(=O)c2cccc(Cl)c2)c2c1C(=O)NCC1(CCOCC1)C2 [Example 41, 3-(3-ethyl-4-oxo-spiro[6,8-dihydro-5H-pyrazolo[4,3-c]azepine-7,4′-tetrahydropyran]-1-yl)propyl 3-chlorobenzoate] | < 100 |
| CCc1nn(CCCOC(=O)c2ccc(Cl)c(F)c2)c2c1C(=O)NCC1(CCOCC1)C2 [Example 81, 3-(3-ethyl-4-oxo-spiro[6,8-dihydro-5H-pyrazolo[4,3-c]azepine-7,4′-tetrahydropyran]-1-yl)propyl 4-chloro-3-fluoro-benzoate] | < 100 |
| CCc1nn(CCCOC(C)=O)c2c1C(=O)NCC1(CCOCC1)C2 [Example 6, 3-(3-ethyl-4-oxo-spiro[6,8-dihydro-5H-pyrazolo[4,3-c]azepine-7,4′-tetrahydropyran]-1-yl)propyl acetate] | 100 to 500 |
| CCc1nn(CCCOC(=O)c2ccc(Cl)c(OC)c2)c2c1C(=O)NCC1(CCOCC1)C2 [Example 87, 3-(3-ethyl-4-oxo-spiro[6,8-dihydro-5H-pyrazolo[4,3-c]azepine-7,4′-tetrahydropyran]-1-yl)propyl 4-chloro-3-methoxy-benzoate] | < 100 |

Same assay, conditions: read-out: PDE4 IC50 range

| SMILES | IC50 [nM] |
| --- | --- |
| CCc1nn(CCCCOC(=O)c2ccc(F)cc2)c2c1C(=O)NCC1(CCOCC1)C2 [Example 366, 4-(3-ethyl-4-oxo-spiro[6,8-dihydro-5H-pyrazolo[4,3-c]azepine-7,4′-tetrahydropyran]-1-yl)butyl 4-fluorobenzoate] | < 100 |
| CCc1nn(CCCCOC(=O)c2ccc(C(=O)N3CCOCC3)cc2)c2c1C(=O)NCC1(CCOCC1)C2 [Example 381, 4-(3-ethyl-4-oxo-spiro[6,8-dihydro-5H-pyrazolo[4,3-c]azepine-7,4′-tetrahydropyran]-1-yl)butyl 4-(morpholine-4-carbonyl)benzoate] | 100 to 500 |
| CCc1nn(CC(C)(C)COC(=O)c2cc(F)cc(F)c2)c2c1C(=O)NCC1(CCOCC1)C2 [Example 293, [3-(3-ethyl-4-oxo-spiro[6,8-dihydro-5H-pyrazolo[4,3-c]azepine-7,4′-tetrahydropyran]-1-yl)-2,2-dimethyl-propyl] 3,5-difluorobenzoate] | < 100 |
| CCc1nn(CC(C)(C)COC(=O)c2ccc(F)cc2Cl)c2c1C(=O)NCC1(CCOCC1)C2 [Example 301, [3-(3-ethyl-4-oxo-spiro[6,8-dihydro-5H-pyrazolo[4,3-c]azepine-7,4′-tetrahydropyran]-1-yl)-2,2-dimethyl-propyl] 2-chloro-4-fluoro-benzoate] | < 100 |
| CCc1nn(CC(C)(C)COC(=O)c2ccc(C(=O)N3CCN(C)CC3)cc2)c2c1C(=O)NCC1(CCOCC1)C2 [Example 337, [3-(3-ethyl-4-oxo-spiro[6,8-dihydro-5H-pyrazolo[4,3-c]azepine-7,4′-tetrahydropyran]-1-yl)-2,2-dimethyl-propyl] 4-(4-methylpiperazine-1-carbonyl)benzoate] | < 100 |
| CCc1nn(CC(C)(C)COC(=O)c2ccc(C(=O)NC(C)C)cc2)c2c1C(=O)NCC1(CCOCC1)C2 [Example 332, [3-(3-ethyl-4-oxo-spiro[6,8-dihydro-5H-pyrazolo[4,3-c]azepme-7,4′-tetrahydropyran]-1-yl)-2,2-dimethyl-propyl] 4-(isopropylcarbamoyl)benzoate] | < 100 |
| CCc1nn(CC(C)(C)COC(=O)c2ccc(C(=O)N3CCOCC3)cc2)c2c1C(=O)NCC1(CCOCC1)C2 [Example 336, [3-(3-ethyl-4-oxo-spiro[6,8-dihydro-5H-pyrazolo[4,3-c]azepine-7,4′-tetrahydropyran]-1-yl)-2,2-dimethyl-propyl] 4-(morpholine-4-carbonyl)benzoate] | < 100 |
| CCc1nn(CC(C)(C)COC(=O)c2cccc(C(=O)N3CCN(C(C)=O)CC3)c2)c2c1C(=O)NCC1(CCOCC1)C2 [Example 349, [3-(3-ethyl-4-oxo-spiro[6,8-dihydro-5H-pyrazolo[4,3-c]azepine-7,4′-tetrahydropyran]-1-yl)-2,2-dimethyl-propyl] 3-(4-acetylpiperazine-1-carbonyl)benzoate] | < 100 |
| CCc1nn(CC(C)(C)COC(=O)c2ccc(C)cc2)c2c1C(=O)NCC1(CCOCC1)C2 [Example 283, [3-(3-ethyl-4-oxo-spiro[6,8-dihydro-5H-pyrazolo[4,3-c]azepine-7,4′-tetrahydropyran]-1-yl)-2,2-dimethyl-propyl] 4-methylbenzoate] | < 100 |
| CCc1nn(CCCCOC(=O)c2ccc(S(=O)(=O)CC)cc2)c2c1C(=O)NCC1(CCOCC1)C2 [Example 371, 4-(3-ethyl-4-oxo-spiro[6,8-dihydro-5H-pyrazolo[4,3-c]azepine-7,4′-tetrahydropyran]-1-yl)butyl 4-ethylsulfonylbenzoate] | 100 to 500 |
| CCc1nn(CC(C)(C)COC(=O)c2cccc(Cl)c2)c2c1C(=O)NCC1(CCOCC1)C2 [Example 291, [3-(3-ethyl-4-oxo-spiro[6,8-dihydro-5H-pyrazolo[4,3-c]azepine-7,4′-tetrahydropyran]-1-yl)-2,2-dimethyl-propyl] 3-chlorobenzoate] | < 100 |
